Data published in US20260070917A1, “CYCLIN DEPENDENT KINASE DEGRADERS AND METHODS OF USE THEREOF” (Differentiated Therapeutics Inc, priority 2023, published 2026).

Assays:
Format in all cases: cell-based
[1] = biological target: T1, CDK2 (Homo sapiens, UniProt P24941); test: HiBit Assay Protocol for CDK2 (HIBIT protein quantification, degradation); conditions: HEK293-CDK2-Hibit cells, compound treatment for 6 hours; for DC50: ABS DC50
T1 construct: host or cells: HEK293-CDK2-Hibit
Method in brief: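 DC50 comes from a fitted curve of remaining CDK2-HiBiT luminescence, referenced to DMSO-treated cells and medium-only wells. HEK293-CDK2-HiBiT cells, plated the previous night, received compounds in a 10-point, 3-fold series for 6 h before lysis with LgBiT-containing Nano-Glo HiBiT reagent.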

[2] = biological target: T2, CCNE1 (Homo sapiens, UniProt P24864); test: HiBit Assay Protocol for CCNE1 (HIBIT protein quantification, degradation); conditions: HEK293-CCNE1-Hibit cells, compound treatment for 6 hours
T2 construct: host or cells: HEK293-CCNE1-Hibit
T2 sequence (P24864 whole entry): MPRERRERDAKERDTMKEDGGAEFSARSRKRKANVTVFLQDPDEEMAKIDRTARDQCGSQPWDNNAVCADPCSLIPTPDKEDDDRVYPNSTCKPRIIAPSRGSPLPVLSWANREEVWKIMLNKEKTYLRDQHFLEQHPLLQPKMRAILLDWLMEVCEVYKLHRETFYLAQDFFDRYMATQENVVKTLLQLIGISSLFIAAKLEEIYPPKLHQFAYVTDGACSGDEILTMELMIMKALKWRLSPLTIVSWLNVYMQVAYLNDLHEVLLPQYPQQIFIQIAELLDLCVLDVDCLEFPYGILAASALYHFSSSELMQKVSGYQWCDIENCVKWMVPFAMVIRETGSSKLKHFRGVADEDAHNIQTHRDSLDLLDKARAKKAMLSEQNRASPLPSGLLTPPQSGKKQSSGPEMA
Method in brief: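 Degradation readout: lytic Nano-Glo HiBiT luminescence after 6 h exposure of HEK293-CCNE1-HiBiT cells to 10-point, 3-fold serial dilutions. Signal was scaled between medium-only and DMSO-treated wells, and DC50 came from curve fits.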

[3] = biological target: T3, CDK9 (Homo sapiens, UniProt P50750); test: HiBit Assay Protocol for CDK9 (HIBIT protein quantification, degradation); conditions: 6 h, HEK293-CDK9-Hibit cells, compound treatment for 6 hours; read-out: CDK9 HIBIT Protein Quantification Maximum
T3 construct: host or cells: HEK293-CDK9-Hibit
T3 sequence (P50750 whole entry): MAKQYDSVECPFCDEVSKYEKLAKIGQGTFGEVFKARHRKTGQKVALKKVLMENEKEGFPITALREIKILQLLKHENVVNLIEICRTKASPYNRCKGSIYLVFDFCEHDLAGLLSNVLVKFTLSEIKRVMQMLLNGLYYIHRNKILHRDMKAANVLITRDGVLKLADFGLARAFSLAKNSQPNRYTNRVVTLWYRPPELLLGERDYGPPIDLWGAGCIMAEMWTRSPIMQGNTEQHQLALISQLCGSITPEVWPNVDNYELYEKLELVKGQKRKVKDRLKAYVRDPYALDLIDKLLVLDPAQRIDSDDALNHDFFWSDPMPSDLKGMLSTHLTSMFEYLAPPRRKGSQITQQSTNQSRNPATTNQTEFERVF
Method in brief: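 Degradation read-out: luminescence after lytic HiBiT/LgBiT detection in HEK293-CDK9-HiBiT cells exposed 6 h to 10-point, 3-fold compound dilutions. Signal scaled between 0.1% DMSO-treated cells and medium alone; DC50 fitted from the curve.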

## CC1CCCC1N1C(=O)C2(CC2)c2cnc(NC3CCN(S(=O)(=O)N4CC(N(C)C(=O)CCCc5ccc6c(c5)n(C)c(=O)n6C5CCC(=O)NC5=O)C4)CC3)nc21 (centres unmarked) [Compound 61]
[1]
  CDK2 HIBIT Protein Quantification Maximum: 60%
  DC50: 3 nM
[2]
  CCNE1 HIBIT Protein Quantification Maximum: 29%
[3]
  Dmax: 23%

## CC1CCCC1N1C(=O)C2(CC2)c2cnc(NC3CCN(S(=O)(=O)N4CCCC45CCN(C(=O)CCCc4ccc6c(c4)n(C)c(=O)n6C4CCC(=O)NC4=O)C5)CC3)nc21 (centres unmarked) [Compound 63]
[1]
  CDK2 HIBIT Protein Quantification Maximum: 15%
[2]
  CCNE1 HIBIT Protein Quantification Maximum: 2%
[3]
  Dmax: 14%

## CC1CCCC1N1C(=O)C2(CC2)c2cnc(NC3CCN(S(=O)(=O)N4CCC5(CCCN5C(=O)CCCc5ccc6c(c5)n(C)c(=O)n6C5CCC(=O)NC5=O)C4)CC3)nc21 (centres unmarked) [Compound 64]
[1]
  CDK2 HIBIT Protein Quantification Maximum: 29%
[2]
  CCNE1 HIBIT Protein Quantification Maximum: 18%
[3]
  Dmax: 17%

## CC1CCCC1N1C(=O)C2(CC2)c2cnc(NC3CCN(S(=O)(=O)N4CC5(CCCCN5C(=O)CCCc5ccc6c(c5)n(C)c(=O)n6C5CCC(=O)NC5=O)C4)CC3)nc21 (centres unmarked) [Compound 65]
[1]
  CDK2 HIBIT Protein Quantification Maximum: 30%
[2]
  CCNE1 HIBIT Protein Quantification Maximum: 4%
[3]
  Dmax: 9%

## CC1CCCC1N1C(=O)C2(CC2)c2cnc(NC3CCN(S(=O)(=O)N4CC5(CCCN(C(=O)CCCc6ccc7c(c6)n(C)c(=O)n7C6CCC(=O)NC6=O)C5)C4)CC3)nc21 (centres unmarked) [Compound 66]
[1]
  CDK2 HIBIT Protein Quantification Maximum: 39%
[2]
  CCNE1 HIBIT Protein Quantification Maximum: 14%
[3]
  Dmax: 8%

## CC1CCCC1N1C(=O)C2(CC2)c2cnc(NC3CCN(S(=O)(=O)N4CC5(CCN(C(=O)CCCc6ccc7c(c6)n(C)c(=O)n7C6CCC(=O)NC6=O)CC5)C4)CC3)nc21 (centres unmarked) [Compound 68]
[1]
  CDK2 HIBIT Protein Quantification Maximum: 38%
[2]
  CCNE1 HIBIT Protein Quantification Maximum: 9%
[3]
  Dmax: 6%

## CC1CCCC1N1C(=O)C2(CC2)c2cnc(NC3CCN(S(=O)(=O)N4CC5C4CCN5C(=O)CCCc4ccc5c(c4)n(C)c(=O)n5C4CCC(=O)NC4=O)CC3)nc21 (centres unmarked) [Compound 69]
[1]
  CDK2 HIBIT Protein Quantification Maximum: 13%
[2]
  CCNE1 HIBIT Protein Quantification Maximum: 8%
[3]
  Dmax: 8%

## CC1CCCC1N1C(=O)C2(CC2)c2cnc(NC3CCN(S(=O)(=O)N4CC5CN(C(=O)CCCc6ccc7c(c6)n(C)c(=O)n7C6CCC(=O)NC6=O)CC54)CC3)nc21 (centres unmarked) [Compound 70]
[1]
  CDK2 HIBIT Protein Quantification Maximum: −3%
[2]
  CCNE1 HIBIT Protein Quantification Maximum: 6%
[3]
  Dmax: 15%

## CC1CCCC1N1C(=O)C2(CC2)c2cnc(NC3CCN(S(=O)(=O)N4CCCN(C(=O)CCCc5ccc6c(c5)n(C)c(=O)n6C5CCC(=O)NC5=O)CC4)CC3)nc21 (centres unmarked) [Compound 72]
[1]
  CDK2 HIBIT Protein Quantification Maximum: 25%
[2]
  CCNE1 HIBIT Protein Quantification Maximum: 8%
[3]
  Dmax: 42%

## CC1CCCC1N1C(=O)C2(CC2)c2cnc(NC3CCN(S(=O)(=O)N4CCCC45CCN(C(=O)CCCCCc4ccc6c(c4)n(C)c(=O)n6C4CCC(=O)NC4=O)C5)CC3)nc21 (centres unmarked) [Compound 74]
[1]
  CDK2 HIBIT Protein Quantification Maximum: 19%
[2]
  CCNE1 HIBIT Protein Quantification Maximum: 29%
[3]
  Dmax: 8%

## CC1CCCC1N1C(=O)C2(CC2)c2cnc(NC3CCN(S(=O)(=O)N4CC5(CCCCN5C(=O)CCCCCc5ccc6c(c5)n(C)c(=O)n6C5CCC(=O)NC5=O)C4)CC3)nc21 (centres unmarked) [Compound 76]
[1]
  CDK2 HIBIT Protein Quantification Maximum: 29%
[2]
  CCNE1 HIBIT Protein Quantification Maximum: 20%
[3]
  Dmax: 9%

## CC1CCCC1N1C(=O)C2(CC2)c2cnc(NC3CCN(S(=O)(=O)N4CCN(C(=O)CCCCCc5ccc6c(c5)n(C)c(=O)n6C5CCC(=O)NC5=O)CC4)CC3)nc21 (centres unmarked) [Compound 77]
[1]
  CDK2 HIBIT Protein Quantification Maximum: 46%
[2]
  CCNE1 HIBIT Protein Quantification Maximum: 25%
[3]
  Dmax: 40%

## CC1CCCC1N1C(=O)C2(CC2)c2cnc(NC3CCN(S(=O)(=O)N4CC5C4CCN5C(=O)CCCCCc4ccc5c(c4)n(C)c(=O)n5C4CCC(=O)NC4=O)CC3)nc21 (centres unmarked) [Compound 78]
[1]
  CDK2 HIBIT Protein Quantification Maximum: 29%
[2]
  CCNE1 HIBIT Protein Quantification Maximum: 17%
[3]
  Dmax: 23%

## CC1CCCC1N1C(=O)C2(CC2)c2cnc(NC3CCN(S(=O)(=O)N4CC5CN(C(=O)CCCCCc6ccc7c(c6)n(C)c(=O)n7C6CCC(=O)NC6=O)CC54)CC3)nc21 (centres unmarked) [Compound 79]
[1]
  CDK2 HIBIT Protein Quantification Maximum: 6%
[2]
  CCNE1 HIBIT Protein Quantification Maximum: 16%
[3]
  Dmax: 21%

## CC1CCCC1N1C(=O)C2(CC2)c2cnc(NC3CCN(S(=O)(=O)N4CCCN(C(=O)CCCCCc5ccc6c(c5)n(C)c(=O)n6C5CCC(=O)NC5=O)CC4)CC3)nc21 (centres unmarked) [Compound 80]
[1]
  CDK2 HIBIT Protein Quantification Maximum: 24%
[2]
  CCNE1 HIBIT Protein Quantification Maximum: 29%
[3]
  Dmax: 8%

## CC1CCCC1N1C(=O)C2(CC2)c2cnc(NC3CCN(S(=O)(=O)C4CCN(C(=O)CCCCCc5ccc6c(c5)n(C)c(=O)n6C5CCC(=O)NC5=O)C4)CC3)nc21 (centres unmarked) [Compound 81]
[1]
  CDK2 HIBIT Protein Quantification Maximum: 50%
  DC50: 8 nM
[2]
  CCNE1 HIBIT Protein Quantification Maximum: 15%
[3]
  Dmax: 14%

## CC1CCCC1N1C(=O)C2(CC2)c2cnc(NC3CCN(S(=O)(=O)C4CCCN(C(=O)CCCCCc5ccc6c(c5)n(C)c(=O)n6C5CCC(=O)NC5=O)C4)CC3)nc21 (centres unmarked) [Compound 82]
[1]
  CDK2 HIBIT Protein Quantification Maximum: 26%
[2]
  CCNE1 HIBIT Protein Quantification Maximum: 43%
[3]
  Dmax: 11%

## CC1CCCC1N1C(=O)C2(CC2)c2cnc(NC3CCN(S(=O)(=O)N4CC5(CCN(C(=O)CCCCCCCc6ccc7c(c6)n(C)c(=O)n7C6CCC(=O)NC6=O)CC5)C4)CC3)nc21 (centres unmarked) [Compound 83]
[1]
  CDK2 HIBIT Protein Quantification Maximum: 29%
[2]
  CCNE1 HIBIT Protein Quantification Maximum: 13%
[3]
  Dmax: 16%

## CC1CCCC1N1C(=O)C2(CC2)c2cnc(NC3CCN(S(=O)(=O)C4CCN(C(=O)CCCCCCCc5ccc6c(c5)n(C)c(=O)n6C5CCC(=O)NC5=O)C4)CC3)nc21 (centres unmarked) [Compound 84]
[1]
  CDK2 HIBIT Protein Quantification Maximum: 53%
  DC50: 21 nM
[2]
  CCNE1 HIBIT Protein Quantification Maximum: 47%
[3]
  Dmax: 30%

## CC1CCCC1N1C(=O)C2(CC2)c2cnc(NC3CCN(S(=O)(=O)C4CCCN(C(=O)CCCCCCCc5ccc6c(c5)n(C)c(=O)n6C5CCC(=O)NC5=O)C4)CC3)nc21 (centres unmarked) [Compound 85]
[1]
  CDK2 HIBIT Protein Quantification Maximum: 17%
[2]
  CCNE1 HIBIT Protein Quantification Maximum: 41%
[3]
  Dmax: 14%

## CC1CCCC1N1C(=O)C2(CC2)c2cnc(NC3CCN(S(=O)(=O)N4CC(N(C)C(=O)CCCCCCCCCc5ccc6c(c5)n(C)c(=O)n6C5CCC(=O)NC5=O)C4)CC3)nc21 (centres unmarked) [Compound 86]
[1]
  CDK2 HIBIT Protein Quantification Maximum: 65%
  DC50: 16 nM
[2]
  CCNE1 HIBIT Protein Quantification Maximum: 37%
[3]
  Dmax: 34%

## CC1CCCC1N1C(=O)C2(CC2)c2cnc(NC3CCN(S(=O)(=O)N4CC5(CCCN(C(=O)CCCCCCCCCc6ccc7c(c6)n(C)c(=O)n7C6CCC(=O)NC6=O)C5)C4)CC3)nc21 (centres unmarked) [Compound 87]
[1]
  CDK2 HIBIT Protein Quantification Maximum: 44%
[2]
  CCNE1 HIBIT Protein Quantification Maximum: 11%
[3]
  Dmax: 13%

## CC1CCCC1N1C(=O)C2(CC2)c2cnc(NC3CCN(S(=O)(=O)N4CC5(CCN(C(=O)CCCCCCCCCc6ccc7c(c6)n(C)c(=O)n7C6CCC(=O)NC6=O)CC5)C4)CC3)nc21 (centres unmarked) [Compound 88]
[1]
  CDK2 HIBIT Protein Quantification Maximum: 55%
  DC50: 7 nM
[2]
  CCNE1 HIBIT Protein Quantification Maximum: 21%
[3]
  Dmax: 24%

## CC1CCCC1N1C(=O)C2(CC2)c2cnc(NC3CCN(S(=O)(=O)N4CCC5(CCN(C(=O)CCCCCCCCCc6ccc7c(c6)n(C)c(=O)n7C6CCC(=O)NC6=O)C5)C4)CC3)nc21 (centres unmarked) [Compound 89]
[1]
  CDK2 HIBIT Protein Quantification Maximum: 50%
[2]
  CCNE1 HIBIT Protein Quantification Maximum: 25%
[3]
  Dmax: 35%
